Measurements reported in ChEMBL document CHEMBL1629642, “In vitro efficacy of ST246 against smallpox and monkeypox” (Antimicrob Agents Chemother, 2009).
Calls of active or inactive are those of the source. No cut-off for these calls is given here.

Columns and labels:
Monkeypox virus [1] = assay: Antiviral activity against Monkeypox virus V77-I-823 infected in african green monkey BSC-40 cells assessed as reduction in virus-induced cytopathic effect; type: functional, organism-based; conditions: V77-I-823, BSC-40
Monkeypox virus [2] = assay: Antiviral activity against Monkeypox virus 2003-USA-039 infected in african green monkey BSC-40 cells at 0.005 uM by IHC staining-based comet tail reduction assay; type: functional, organism-based
Ectromelia virus = assay: Antiviral activity against Ectromelia virus infected in african green monkey Vero cells assessed as reduction in virus-induced cytopathic effect; type: functional, cell-based
Variola virus [3] = assay: Antiviral activity against Variola virus NEP73-175 infected in african green monkey BSC-40 cells at 0.05 to 0.5 uM by IHC staining-based plaque reduction assay; type: functional, organism-based
Monkeypox virus [4] = assay: Antiviral activity against Monkeypox virus V78-I-3945 infected in african green monkey BSC-40 cells at 0.05 to 0.5 uM by IHC staining-based plaque reduction assay; type: functional, organism-based
Variola virus [5] = assay: Antiviral activity against Variola virus SOM77-ali infected in african green monkey BSC-40 cells at 0.005 uM assessed as reduction in virus-induced cytopathic effect; type: functional, organism-based
Variola virus [6] = assay: Antiviral activity against Variola virus SOM77-ali infected in african green monkey BSC-40 cells at 0.05 to 0.5 uM by IHC staining-based comet tail reduction assay; type: functional, organism-based
Monkeypox virus [7] = assay: Antiviral activity against Monkeypox virus V1979-I-005 infected in african green monkey BSC-40 cells assessed as reduction in virus-induced cytopathic effect; type: functional, organism-based; conditions: V1979-I-005, BSC-40
Variola virus [8] = assay: Antiviral activity against Variola virus SOM77-ali infected in african green monkey BSC-40 cells at 0.015 uM assessed as reduction in virus-induced cytopathic effect; type: functional, organism-based
Monkeypox virus [9] = assay: Antiviral activity against Monkeypox virus V78-I-3945 infected in african green monkey BSC-40 cells at 0.005 uM uM by IHC staining-based plaque reduction assay; type: functional, organism-based
Monkeypox virus [10] = assay: Antiviral activity against Monkeypox virus V81-I-179 infected in african green monkey BSC-40 cells at 0.015 uM by IHC staining-based comet tail reduction assay; type: functional, organism-based
Monkeypox virus [11] = assay: Antiviral activity against Monkeypox virus V78-I-3945 infected in african green monkey BSC-40 cells assessed as reduction in virus-induced cytopathic effect; type: functional, organism-based; conditions: V78-I-3945, BSC-40
Monkeypox virus [12] = assay: Antiviral activity against Monkeypox virus V1979-I-005 infected in african green monkey BSC-40 cells assessed as reduction in viral plaque formation at 0.015 uM uM by IHC staining-based plaque reduction assay; type: functional
Monkeypox virus [13] = assay: Antiviral activity against Monkeypox virus V1979-I-005 infected in african green monkey BSC-40 cells at 0.05 to 0.5 uM by IHC staining-based plaque reduction assay; type: functional, organism-based
Monkeypox virus [14] = assay: Antiviral activity against Monkeypox virus V78-I-3945 infected in african green monkey BSC-40 cells assessed as reduction in virus-induced cytopathic effect at 0.05 to 5 uM; type: functional, organism-based
Monkeypox virus [15] = assay: Antiviral activity against Monkeypox virus 2003-USA-039 infected in african green monkey BSC-40 cells at 0.05 to 0.5 uM by IHC staining-based plaque reduction assay; type: functional, organism-based
Variola virus [16] = assay: Antiviral activity against Variola virus NEP73-175 infected in african green monkey BSC-40 cells at 0.015 uM by IHC staining-based comet tail reduction assay; type: functional, organism-based
Variola virus [17] = assay: Antiviral activity against Variola virus BRZ66-39 infected in african green monkey BSC-40 cells at 0.015 uM assessed as reduction in virus-induced cytopathic effect; type: functional, organism-based
Variola virus [18] = assay: Antiviral activity against Variola virus SLN68-258 infected in african green monkey BSC-40 cells at 0.005 uM by IHC staining-based comet tail reduction assay; type: functional, organism-based
Variola virus [19] = assay: Antiviral activity against Variola virus SLN68-258 infected in african green monkey BSC-40 cells at 0.005 uM assessed as reduction in virus-induced cytopathic effect; type: functional, organism-based
Monkeypox virus [20] = assay: Antiviral activity against Monkeypox virus V1979-I-005 infected in african green monkey BSC-40 cells at 0.005 uM uM by IHC staining-based plaque reduction assay; type: functional, organism-based
Variola virus [21] = assay: Antiviral activity against Variola virus SUD47-juba infected in african green monkey BSC-40 cells at 0.005 uM assessed as reduction in virus-induced cytopathic effect; type: functional, organism-based
Variola virus [22] = assay: Antiviral activity against Variola virus BSH74-sol infected in african green monkey BSC-40 cells assessed as reduction in viral plaque formation at 0.015 uM uM by IHC staining-based plaque reduction assay; type: functional
Variola virus [23] = assay: microbe, parasite or virus in culture; conditions: BRZ66-39, BSC-40
Monkeypox virus [24] = assay: Antiviral activity against Monkeypox virus 2003-USA-039 infected in african green monkey BSC-40 cells assessed as reduction in virus-induced cytopathic effect; type: functional, organism-based; conditions: 2003-USA-039, BSC-40
Monkeypox virus [25] = assay: Antiviral activity against Monkeypox virus V81-I-179 infected in african green monkey BSC-40 cells assessed as reduction in viral plaque formation at 0.015 uM uM by IHC staining-based plaque reduction assay; type: functional
Variola virus [26] = assay: Antiviral activity against Variola virus infected in african green monkey vero cells assessed as reduction in virus-induced cytopathic effect; type: functional, organism-based
Variola virus [27] = assay: Antiviral activity against Variola virus BSH74-sol infected in african green monkey BSC-40 cells at 0.05 to 5 uM assessed as reduction in virus-induced cytopathic effect; type: functional, organism-based
Variola virus [28] = assay: Antiviral activity against Variola virus BSH74-sol infected in african green monkey BSC-40 cells at 0.005 uM by IHC staining-based comet tail reduction assay; type: functional, organism-based
Monkeypox virus [29] = assay: Antiviral activity against Monkeypox virus V78-I-3945 infected in african green monkey BSC-40 cells at 0.05 to 0.5 uM by IHC staining-based comet tail reduction assay; type: functional, organism-based
Monkeypox virus [30] = assay: Antiviral activity against Monkeypox virus V81-I-179 infected in african green monkey BSC-40 cells assessed as reduction in virus-induced cytopathic effect; type: functional, organism-based; conditions: V81-I-179, BSC-40
Variola virus [31] = assay: Antiviral activity against Variola virus SUD47-juba infected in african green monkey BSC-40 cells at 0.005 uM by IHC staining-based comet tail reduction assay; type: functional, organism-based
Monkeypox virus [32] = assay: Antiviral activity against Monkeypox virus 2003-USA-039 infected in african green monkey BSC-40 cells at 0.005 uM uM by IHC staining-based plaque reduction assay; type: functional, organism-based
Variola virus [33] = assay: microbe, parasite or virus in culture; conditions: SOM77-ali, BSC-40
Monkeypox virus [34] = assay: Antiviral activity against Monkeypox virus V1979-I-005 infected in african green monkey BSC-40 cells assessed as reduction in virus-induced cytopathic effect at 0.05 to 5 uM; type: functional, organism-based
Variola virus [35] = assay: Antiviral activity against Variola virus BRZ66-39 infected in african green monkey BSC-40 cells at 0.05 to 5 uM assessed as reduction in virus-induced cytopathic effect; type: functional, organism-based
Variola virus [36] = assay: Antiviral activity against Variola virus NEP73-175 infected in african green monkey BSC-40 cells at 0.015 uM assessed as reduction in virus-induced cytopathic effect; type: functional, organism-based

In the case of `O=C(NN1C(=O)[C@@H]2[C@@H]3C=C[C@@H]([C@H]4C[C@@H]34)[C@@H]2C1=O)c1ccc(C(F)(F)F)cc1` [TECOVIRIMAT], the EC50 (Monkeypox virus [1]) is reported as 30 nM, the Activity (Monkeypox virus [2]) is reported as “inactive” and the Activity (Ectromelia virus) is reported as “Active”. The Activity (Variola virus [3]) was “Active”, the Activity (Monkeypox virus [4]) was “Active” and the Activity (Variola virus [5]) was “inactive”. For the same compound, the Activity (Variola virus [6]) was “Active”, the EC50 (Monkeypox virus [7]) was 39 nM and the Activity (Variola virus [8]) was “Active”. The Activity (Monkeypox virus [9]) was “inactive”, the Activity (Monkeypox virus [10]) was “Active” and the EC50 (Monkeypox virus [11]) was 23 nM. For the same compound, the “inhibition (INH)” value (Monkeypox virus [12]) was 50%, the Activity (Monkeypox virus [13]) was “Active” and the Activity (Monkeypox virus [14]) was “Active”. The Activity (Monkeypox virus [15]) was “Active”, the Activity (Variola virus [16]) was “Active” and the Activity (Variola virus [17]) was “Active”. For the same compound, the Activity (Variola virus [18]) was “inactive”, the Activity (Variola virus [19]) was “inactive” and the Activity (Monkeypox virus [20]) was “inactive”. The Activity (Variola virus [21]) was “inactive”, the “inhibition (INH)” value (Variola virus [22]) was 50% and the EC50 (Variola virus [23]) was 67 nM. For the same compound, the EC50 (Monkeypox virus [24]) was 36 nM, the “inhibition (INH)” value (Monkeypox virus [25]) was 50% and the Activity (Variola virus [26]) was “Active”. For the same compound, the Activity (Variola virus [27]) was “Active”, the Activity (Variola virus [28]) was “inactive” and the Activity (Monkeypox virus [29]) was “Active”. The EC50 (Monkeypox virus [30]) was 32 nM, the Activity (Variola virus [31]) was “inactive” and the Activity (Monkeypox virus [32]) was “inactive”. The EC50 (Variola virus [33]) was 28 nM, the Activity (Monkeypox virus [34]) was “Active” and the Activity (Variola virus [35]) was “Active”. The Activity (Variola virus [36]) was “Active”.
